Reference: ChEMBL document CHEMBL6078723, “Novel steroidal β-carboline derivatives as promising antibacterial candidates against methicillin-resistant Staphylococcus aureus” (Eur J Med Chem, 2025)
Activity calls are given as the source filed them. No cut-off for these calls is given here.

Legend:
[1] = test system: Staphylococcus aureus; assay: Antibacterial activity against Staphylococcus aureus CGMCC1.8721 in presence of Fe3+ (reference value: 0.5 ug/ml); assay type: functional
[2] = test system: Staphylococcus aureus; assay: Antibacterial activity against methicillin-resistant Staphylococcus aureus ATCC 43300 in presence of K+ (reference value: 0.5 ug/ml); assay type: functional
[3] = test system: Staphylococcus aureus; assay: Antibacterial activity against methicillin-resistant Staphylococcus aureus CGMCC1.12409 infected in mouse model assessed as reduction in skin lession in subcutaneous tissues at 10 mg/kg measured for 5 days; assay type: functional, organism-based; details: time 5.0 day
[4] = test system: Staphylococcus aureus; assay: Antibacterial activity against methicillin-resistant Staphylococcus aureus ATCC 43300 at 36.5 degreeC (reference value: 0.5 ug/ml); assay type: functional
[5] = test system: Staphylococcus aureus; assay: Antibacterial activity against Staphylococcus aureus CGMCC1.8721; assay type: functional
[6] = test system: Staphylococcus aureus; assay: Antibacterial activity against Staphylococcus aureus CGMCC1.8721 in presence of phosphatidylglycerol; assay type: functional, organism-based
[7] = test system: Staphylococcus aureus; assay: Induction of morphological change in Staphylococcus aureus CGMCC1.8721 assessed as appearance of atrophy at MIC by […] SEM analysis; assay type: functional, organism-based
[8] = test system: Staphylococcus aureus; assay: Antibacterial activity against methicillin-resistant Staphylococcus aureus ATCC 43300 in presence of H2PO4- (reference value: 0.5 ug/ml); assay type: functional
[9] = test system: Staphylococcus aureus; assay: Induction of resistance development in Staphylococcus aureus CGMCC1.8721 at sub-lethal concentration following serial passages for 30 days; assay type: functional, organism-based; details: time 30.0 day
[10] = test system: Staphylococcus aureus; assay: Antibacterial activity against Staphylococcus aureus CGMCC1.8721 in presence of phosphatidylethanolamine; assay type: functional, organism-based
[11] = test system: Staphylococcus aureus; assay: Antibacterial activity against Staphylococcus aureus CGMCC1.8721 in presence of dNTP; assay type: functional, organism-based
[12] = test system: Staphylococcus aureus; assay: Antibacterial activity against methicillin-resistant Staphylococcus aureus ATCC 33591 in presence of K+ (reference value: 1 ug/ml); assay type: functional
[13] = test system: Staphylococcus aureus; assay: Antibacterial activity against methicillin-resistant Staphylococcus aureus ATCC 43300 in presence of Ca2+ (reference value: 0.5 ug/ml); assay type: functional
[14] = test system: Staphylococcus aureus; assay: Antibacterial activity against methicillin-resistant Staphylococcus aureus CGMCC1.12409 at pH 8 (reference value: 0.5 ug/ml); assay type: functional
[15] = test system: Staphylococcus aureus; assay: Antibacterial activity against Staphylococcus aureus CGMCC1.8721 in presence of ATP; assay type: functional, organism-based
[16] = test system: Staphylococcus aureus; assay: Induction of morphological change in Staphylococcus aureus CGMCC1.8721 assessed as depression of cell surface at 4 times MIC by […] SEM analysis; assay type: functional, organism-based
[17] = test system: Staphylococcus aureus; assay: Bactericidal activity against Staphylococcus aureus CGMCC1.8721 by CLSI based method; assay type: functional
[18] = test system: Staphylococcus aureus; assay: Antibiofilm activity against Staphylococcus aureus CGMCC1.8721 by crystal violet staining based analysis; assay type: functional, organism-based
[19] = test system: Staphylococcus aureus; assay: Induction of ROS accumulation in Staphylococcus aureus CGMCC1.8721 by DCFH-DA dye based analysis; assay type: functional, organism-based
[20] = test system: Staphylococcus aureus; assay: Antibacterial activity against methicillin-resistant Staphylococcus aureus ATCC 33591 at 36.5 degreeC (reference value: 1 ug/ml); assay type: functional
[21] = test system: Staphylococcus aureus; assay: Antibacterial activity against Staphylococcus aureus CGMCC1.8721 in presence of Zn2+ (reference value: 0.5 ug/ml); assay type: functional
[22] = test system: Staphylococcus aureus; assay: Induction of morphological change in Staphylococcus aureus CGMCC1.8721 assessed as cell rupture at 4 times MIC by […] SEM analysis; assay type: functional, organism-based
[23] = test system: Staphylococcus aureus; assay: Antibacterial activity against methicillin-resistant Staphylococcus aureus ATCC 43300 in presence of Mg2+ (reference value: 0.5 ug/ml); assay type: functional
[24] = test system: Staphylococcus aureus; assay: Antibacterial activity against methicillin-resistant Staphylococcus aureus ATCC 33591 at pH 8 (reference value: 1 ug/ml); assay type: functional
[25] = test system: Staphylococcus aureus; assay: Antibacterial activity against methicillin-resistant Staphylococcus aureus ATCC 33591 at 37.5 degreeC (reference value: 1 ug/ml); assay type: functional
[26] = test system: Staphylococcus aureus; assay: Antibacterial activity against methicillin-resistant Staphylococcus aureus CGMCC1.12409 in presence of K+ (reference value: 0.5 ug/ml); assay type: functional
[27] = test system: Staphylococcus aureus; assay: Antibacterial activity against methicillin-resistant Staphylococcus aureus CGMCC1.12409 infected in mouse model assessed as reduction in neutrophils in skin tissues at 5 to 10 mg/kg measured for 5 days by H and E staining based analysis; assay type: functional, organism-based; details: dose 5-10 mg/kg, time 5.0 day
[28] = test system: Staphylococcus aureus; assay: Antibacterial activity against Staphylococcus aureus CGMCC1.8721 in presence of LTA; assay type: functional, organism-based
[29] = test system: Staphylococcus aureus; assay: Bactericidal activity against Staphylococcus aureus CGMCC1.8721 at 4 to 8 times MIC incubated for 0.5 to 1 hr by time kill assay relative to control; assay type: functional; details: time 0.5-1 hrs
[30] = test system: Staphylococcus aureus; assay: Antibacterial activity against methicillin-resistant Staphylococcus aureus CGMCC1.12409 in presence of Mg2+ (reference value: 0.5 ug/ml); assay type: functional
[31] = test system: Staphylococcus aureus; assay: Inhibition of metabolic activity in Staphylococcus aureus CGMCC1.8721; assay type: functional, organism-based
[32] = test system: Staphylococcus aureus; assay: Induction of inner membrane permeability in Staphylococcus aureus CGMCC1.8721 assessed as increase in red fluorescence intensity by PI staining based analysis; assay type: functional, organism-based
[33] = test system: Staphylococcus aureus; assay: Antibacterial activity against methicillin-resistant Staphylococcus aureus ATCC 43300 in presence of Fe2+ (reference value: 0.5 ug/ml); assay type: functional
[34] = test system: Staphylococcus aureus; assay: Antibacterial activity against methicillin-resistant Staphylococcus aureus ATCC 43300; assay type: functional
[35] = test system: HepG2; assay: Cytotoxicity against human HepG2 cells at 40 uM by CCK8 assay relative to control; assay type: toxicity, cell-based; details: hepg2, 40 µM
[36] = test system: Staphylococcus aureus; assay: Antibacterial activity against Staphylococcus aureus CGMCC1.8721 at pH 6.5 (reference value: 0.5 ug/ml); assay type: functional
[37] = test system: Staphylococcus aureus; assay: Antibacterial activity against methicillin-resistant Staphylococcus aureus ATCC 43300 in presence of Fe3+ (reference value: 0.5 ug/ml); assay type: functional
[38] = test system: Staphylococcus aureus; assay: Antibacterial activity against methicillin-resistant Staphylococcus aureus CGMCC1.12409 in presence of Na+ (reference value: 0.5 ug/ml); assay type: functional
[39] = test system: Staphylococcus aureus; assay: Induction of bacterial regrowth of Staphylococcus aureus CGMCC1.8721 at 4 to 8 times MIC measured after 24 hrs by time kill assay; assay type: functional, organism-based
[40] = test system: Staphylococcus aureus; assay: Antibacterial activity against methicillin-resistant Staphylococcus aureus CGMCC1.12409 infected in mouse model assessed as reduction in bacterial clones at 5 to 10 mg/kg measured for 5 days; assay type: functional, organism-based; details: dose 5-10 mg/kg, time 5.0 day
[41] = test system: Staphylococcus aureus; assay: Antibacterial activity against Staphylococcus aureus CGMCC1.8721 at 36.5 degreeC (reference value: 0.5 ug/ml); assay type: functional
[42] = test system: Staphylococcus aureus; assay: Antibacterial activity against Staphylococcus aureus CGMCC1.8721 in presence of Fe2+ (reference value: 0.5 ug/ml); assay type: functional
[43] = test system: Staphylococcus aureus; assay: Antibacterial activity against methicillin-resistant Staphylococcus aureus CGMCC1.12409 in presence of Ca2+ (reference value: 0.5 ug/ml); assay type: functional
[44] = test system: Staphylococcus aureus; assay: Antibacterial activity against methicillin-resistant Staphylococcus aureus CGMCC1.12409 at 37.5 degreeC (reference value: 0.5 ug/ml); assay type: functional
[45] = test system: Staphylococcus aureus; assay: Antibiofilm activity against Staphylococcus aureus CGMCC1.8721 at 4 times MIC by crystal violet staining based analysis relative to control; assay type: functional

COc1ccc2[nH]c3c(CC[C@H](C)[C@H]4CC[C@H]5[C@@H]6[C@H](O)C[C@@H]7C[C@H](O)CC[C@]7(C)[C@H]6C[C@H](O)[C@]45C)[n+](Cc4ccc(Cl)cc4)ccc3c2c1.[Br-]
MIC [1]: 0.5 mg/L | MIC [2]: 0.5 mg/L | Activity [3]: Active | MIC [4]: 0.5 mg/L | MIC [5]: 0.5 mg/L | Activity [6]: inactive | Activity [7]: Active | MIC [8]: 0.5 mg/L | Activity [9]: inactive | Activity [10]: Active | Activity [11]: Active | MIC [12]: 1 mg/L | MIC [13]: 0.5 mg/L | MIC [14]: 1 mg/L | Activity [15]: Active | Activity [16]: Active | MBC [17]: 1 mg/L | Activity [18]: Dose-dependent-effect | Activity [19]: Dose-dependent-effect | MIC [20]: 1 mg/L | MIC [21]: 0.5 mg/L | Activity [22]: Active | MIC [23]: 0.5 mg/L | MIC [24]: 1 mg/L | MIC [25]: 1 mg/L | MIC [26]: 1 mg/L | Activity [27]: Active | Activity [28]: Active | Activity [29]: 100% | MIC [30]: 1 mg/L | inhibition [31]: Dose-dependent-effect | Activity [32]: Dose-dependent-effect | MIC [33]: 0.5 mg/L | MIC [34]: 0.5 mg/L | Activity [35]: Non-toxic | MIC [36]: 0.5 mg/L | MIC [37]: 0.5 mg/L | MIC [38]: 1 mg/L | Activity [39]: Not active; Compound Activity Was Higher Than That Of Vancomycin | Activity [40]: Active | MIC [41]: 0.5 mg/L | MIC [42]: 0.5 mg/L | MIC [43]: 1 mg/L | MIC [44]: 0.5 mg/L | Activity [45]: ~87%
